Assay results as given in patent publication US6451786B1 (Cephalon, Inc., priority 1997, dated 2002).

What was measured:
[1] = biological target: T1, baculovirus-expressed human trkA cytoplasmic domain (Homo sapiens, UniProt P04629); test: Inhibition of trkA kinase activity (ELISA-based assay); type: biochemical; settings: 40 μM ATP, read-out: trk IC50
T1 construct: baculovirus-expressed human trkA cytoplasmic domain; made in house; host or cells: baculovirus expression system (insect cells)
Procedure: An antibody to phosphotyrosine (UBI) was then added, followed by a secondary enzyme-conjugated antibody, alkaline phosphatase-labelled goat anti-mouse IgG (Bio-Rad). The activity of the bound enzyme was measured using an amplified detection system (Gibco-BRL). Inhibition data were analyzed using the sigmoidal dose-response (variable slope) equation in GraphPad Prism.

trkA = biological target: T2, trkA (Homo sapiens, UniProt P04629); type: cell-based; settings: NIH3T3 cells; for inhibition at 0.001 µM: 1 nM compound, read-out: Inhibition Score 1 nM; for inhibition at 0.001 µM / inhibition at 0.01 µM / inhibition at 0.05 µM / inhibition at 0.1 µM: NGF 10 ng/ml, percent decrease in trk protein band; for inhibition at 0.01 µM: 10 nM compound, read-out: Inhibition Score 10 nM; for inhibition at 0.05 µM: 50 nM compound, read-out: Inhibition Score 50 nM; for inhibition at 0.1 µM: 100 nM compound, read-out: Inhibition Score 100 nM
T2 construct: expressed in transfected cells; host or cells: NIH3T3 cells
Procedure: NIH3T3 cells transfected with trkA were grown in 100 mm dishes. […] NGF (Harlan/Bioproducts for Science) was then added to the cells at a concentration of 10 ng/ml for 5 minutes. Cells were lysed in buffer containing detergent and protease inhibitors. Clarified cell lysates were normalized to protein using BCA method and immunoprecipitated with anti-trk antibody.
The immune complexes were collected on Protein A Sepharose beads (Sigma), separated by SDS polyacrylamide gel electrophoresis (SDS-PAGE), and transferred to a polyvinylidene difluoride (PVDF) membrane. The membrane was immunoblotted with anti-phosphotyrosine antibody (UBI), followed by incubation with horseradish peroxidase coupled goat anti-mouse IgG (Bio-Rad).. Phosphorylated proteins were visualized using ECL (Amersham).
The area of the trk protein band was measured and compared to NGF-stimulated control.

[2] = biological target: T3, protein kinase C (UBI; mixed isozymes of a, b, g); test: Inhibition of protein kinase C activity (Multiscreen TCA in-plate assay); type: biochemical; settings: read-out: PKC IC50
T3 construct: 1.5 ng protein kinase C (UBI)
Procedure: Assays were performed in 96-well Multiscreen-DP plates (Millipore). […] The reaction was allowed to proceed for 10 min at 37° C. […] The IC50 values were calculated by fitting the data to the sigmoidal dose-response (variable slope) equation in GraphPad Prism.

[3] = system: dissociated rat embryonic spinal cord culture (ChAT activity); test: Enhancement of spinal cord ChAT activity in dissociated rat embryonic spinal cord culture; type: cell-based; settings: ChAT measured after 2 days in vitro
From the text: ChAT was employed a biochemical marker for functional cholinergic neurons. CHAT activity has been used to study the effects of neurotrophins (e.g., NGF or NT-3) on the survival and/or function of cholinergic neurons. The ChAT assay also has been used as an indication of the regulation of ChAT levels within cholinergic neurons. […] In these assays, a compound was directly added to a dissociated spinal cord culture. […] Neurochem.

[4] = system: rat spinal cord motoneurons; test: Survival assay using rat spinal cord motoneurons (calcein AM viability); type: cell-based; settings: cultures enriched for motoneurons, survival assessed after 4 days (FIG. 8)
Procedure: Spinal cords were dissected from Sprague-Dawley rat fetuses (Charles River Laboratories, Wilmington, Mass.) of embryonic age (E) 14.5-15. Cells from only the ventral portion of the spinal cord were dissociated, and further enriched for motoneurons by centrifugation on a 6.5% step metrizamide gradient, and were analyzed for purity by staining with low affinity neurotrophin receptor antibody (IgG-192, Boehringer-Mannheim). Cells were seeded onto 96-well plates previously coated with poly-1-ornithine and laminin (5 ug/ml each) at a density of 6×10^4 cells/cm^2 in chemically defined serum-free N2 medium (Bottenstein and Sato, 1979). To distinguish attachment from survival effects, 3,9-bis[(ethylthio)methyl]-K-252a (Kaneko et. al., J. Med. Chem 40:1863-1869, 1997) was added to cultures after an initial attachment period of 1-3 hours.
Neuronal survival was assessed after 4 days by calcein AM (Molecular Probes, Eugene, Oreg.) in a fluorimetric viability assay (Bozyczko-Coyne et. al., J. Neurosci. Meth. 50:205-216, 1993). […] The fluorescent signal was read using a plate-reading fluorimeter (Cytofluor 2350) (excitation=485 nm; emission=538 nm). […] Linearity of the fluorescence signal was verified for the concentration and incubation time for the range of cell densities. Microscopic counts of neurons correlated directly with relative fluorescence values.

T2 sequence (P04629 33-796, species assumed): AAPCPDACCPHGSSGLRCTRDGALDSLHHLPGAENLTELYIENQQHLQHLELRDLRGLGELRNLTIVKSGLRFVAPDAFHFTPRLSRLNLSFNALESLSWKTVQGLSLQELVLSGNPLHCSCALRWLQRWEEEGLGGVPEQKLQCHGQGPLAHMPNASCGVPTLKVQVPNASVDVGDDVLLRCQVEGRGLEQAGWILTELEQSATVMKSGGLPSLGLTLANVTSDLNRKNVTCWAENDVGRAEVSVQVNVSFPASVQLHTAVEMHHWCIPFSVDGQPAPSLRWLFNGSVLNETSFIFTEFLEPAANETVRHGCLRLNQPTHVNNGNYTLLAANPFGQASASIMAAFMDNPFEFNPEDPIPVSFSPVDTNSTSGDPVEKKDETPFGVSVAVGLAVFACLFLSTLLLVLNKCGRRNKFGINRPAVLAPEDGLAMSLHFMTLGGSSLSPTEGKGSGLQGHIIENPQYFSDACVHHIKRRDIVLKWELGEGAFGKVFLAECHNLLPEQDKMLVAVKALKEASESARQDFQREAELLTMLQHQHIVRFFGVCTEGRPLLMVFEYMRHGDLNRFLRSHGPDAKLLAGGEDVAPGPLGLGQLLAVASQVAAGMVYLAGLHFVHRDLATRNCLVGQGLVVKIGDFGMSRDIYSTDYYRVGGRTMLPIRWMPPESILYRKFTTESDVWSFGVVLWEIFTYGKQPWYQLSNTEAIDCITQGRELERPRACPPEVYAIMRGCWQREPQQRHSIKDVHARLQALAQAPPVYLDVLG
T1 sequence (P04629 440-796 limits assumed): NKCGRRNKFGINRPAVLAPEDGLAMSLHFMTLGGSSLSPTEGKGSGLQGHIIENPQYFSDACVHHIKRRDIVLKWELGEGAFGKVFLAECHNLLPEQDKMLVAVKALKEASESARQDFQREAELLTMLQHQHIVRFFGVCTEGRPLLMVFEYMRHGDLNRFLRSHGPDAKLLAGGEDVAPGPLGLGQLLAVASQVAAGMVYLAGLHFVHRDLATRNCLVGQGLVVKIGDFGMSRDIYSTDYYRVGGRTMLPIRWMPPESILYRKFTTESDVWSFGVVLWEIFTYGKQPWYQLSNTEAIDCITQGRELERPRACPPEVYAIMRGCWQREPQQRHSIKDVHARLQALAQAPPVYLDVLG

Row | SMILES | IC50 [1] [µM] | inhibition at 0.001 µM (trkA) [%] | inhibition at 0.01 µM (trkA) [%] | inhibition at 0.05 µM (trkA) [%] | inhibition at 0.1 µM (trkA) [%] | IC50 [2] [µM] | Spinal Cord ChAT % control, Activity at 50 nM [3] [% control] | Spinal Cord ChAT % control, Maximal Activity [3] [% control] | further results
1 | C[C@]1(O)CC2O[C@]1(C)n1c3ccccc3c3c4c(c5c6ccccc6n2c5c31)C(=O)NC4 [Compound X] | 0.002 | 26 to 49 | 50 to 75 | 76 to 100 | 76 to 100 | > 1 | <120 | 127 | concentration giving complete inhibition of trkA (trkA): < 50 nM; IC50 (trkA; NGF-stimulated, read-out: IC50 for inhibiting trk in a whole cell preparation): < 0.01 µM
2 | C[C@]12OC(C[C@@]1(O)CO)n1c3ccccc3c3c4c(c5c6ccccc6n2c5c31)CNC4=O [Compound VII] | – | 1 to 25 | 26 to 49 | 76 to 100 | 76 to 100 | 0.079 | <120 | – | –
3 | C[C@@]1(O)C[C@H]2O[C@]1(C)n1c3ccccc3c3c4c(c5c6ccccc6n2c5c31)C(=O)NC4 [Compound XXIX, reference compound] | 0.007 | – | – | – | – | – | – | – | –
4 | C[C@]12OC(C[C@@]1(O)C(N)=O)n1c3ccccc3c3c4c(c5c6ccccc6n2c5c31)CNC4=O [Compound XV] | 0.021 | – | – | – | – | – | – | 129 | –
5 | C[C@@]12C=C[C@@H](O1)n1c3ccccc3c3c4c(c5c6ccccc6n2c5c31)CNC4=O [Compound XXIII] | 0.004 | – | – | – | – | > 1 | – | – | –
6 | C[C@@]1(O)CC2O[C@]1(C)n1c3ccccc3c3c4c(c5c6ccccc6n2c5c31)C(=O)NC4 [Compound XXIX, reference compound] | – | 26 to 49 | 50 to 75 | 50 to 75 | 50 to 75 | 0.31 | – | – | complete inhibition of trkA at 100 nM (trkA; 100 nM): did not show complete inhibition
7 | C[C@]12OC(C[C@H]1CO)n1c3ccccc3c3c4c(c5c6ccccc6n2c5c31)CNC4=O [Compound VI] | 0.002 | – | – | – | – | 0.095 | <120 | 125 | –
8 | COC(=O)[C@]1(O)CC2O[C@]1(C)n1c3ccccc3c3c4c(c5c6ccccc6n2c5c31)C(=O)NC4 [Compound XIV, 3′-(R)-K-252a] | – | – | – | – | – | – | 147 | 195 | –
9 | C[C@]12OC(C[C@@]1(O)C(=O)O)n1c3ccccc3c3c4c(c5c6ccccc6n2c5c31)CNC4=O [Compound XVI] | – | – | – | – | – | – | – | – | survival of spinal cord motoneurons [4]: significantly enhanced survival
